Columns and labels:
DCTD = target: T1, DCTD (Homo sapiens, UniProt P32321); assay: thin-layer chromatography of dCMP deamination; type: biochemical; details: allosteric activator; substrate dCMP; 37 C, 15 min; 50 mM Tris-HCl pH 7.5
T1 sequence (P32321 1-178): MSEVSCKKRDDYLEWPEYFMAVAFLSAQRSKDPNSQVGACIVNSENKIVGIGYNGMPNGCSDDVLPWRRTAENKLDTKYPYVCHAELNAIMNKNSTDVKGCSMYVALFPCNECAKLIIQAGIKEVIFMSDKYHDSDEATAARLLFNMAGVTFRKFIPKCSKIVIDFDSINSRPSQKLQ

purified protein = substrate: Nc1ccn([C@H]2C[C@H](O)[C@@H](COP(=O)(O)OP(=O)(O)OP(=O)(O)O)O2)c(=O)n1; assay: purified protein; type: biochemical, Homo sapiens; details: 50 mM Tris-HCl pH 7.5, 200 ng enzyme, sigmoidal fit slightly better than Michaelis-Menten

In the case of `Nc1ccn([C@H]2C[C@H](O)[C@@H](COP(=O)(O)OP(=O)(O)OP(=O)(O)O)O2)c(=O)n1` [dCTP], the “thin-layer chromatography of dCMP deamination” value (DCTD) is reported as “DCTD converted dCMP to dUMP, with activity enhanced by the allosteric activator dCTP”.

B1: CDADC1 (Homo sapiens) (protein)
chain: MKEAGQMQNLESARAGRSVSTQTGSMTGQIPRLSKVNLFTLLSLWMELFPAEAQRQKSQKNEEGKHGPLGDNEERTRVSTDKRQVKRTGLVVVKNMKIVGLHCSSEDLHAGQIALIKHGSRLKNCDLYFSRKPCSACLKMIVNAGVNRISYWPADPEISLLTEASSSEDAKLDAKAVERLKSNSRAHVCVLLQPLVCYMVQFVEETSYKCDFIQKITKTLPDANTDFYYECKQERIKEYEMLFLVSNEEMHKQILMTIGLENLCENPYFSNLRQNMKDLILLLATVASSVPNFKHFGFYRSNPEQINEIHNQSLPQEIARHCMVQARLLAYRTEDHKTGVGAVIWAEGKSRSCDGTGAMYFVGCGYNAFPVGSEYADFPHMDDKQKDREIRKFRYIIHAEQNALTFRCQEIKPEERSMIFVTKCPCDECVPLIKGAGIKQIYAGDVDVGKKKADISYMRFGELEGVSKFTWQLNPSGAYGLEQNEPERRENGVLRPVPQKEEQHQDKKLRLGIH
notes: two deaminase domains CDD1 and CDD2
Work on B1 yielded a Km (purified protein) of 288.5 ± 30.6 µM.

— publication PMC12184417, “CDADC1 is a vertebrate-specific dCTP deaminase that metabolizes gemcitabine and decitabine to prevent cellular toxicity” (Proceedings of the National Academy of Sciences of the …, 2025)
